These results are taken from patent publication US20250214977A1, “STAT6 INHIBITORS AND USES THEREOF” (Kymera Therapeutics, Inc., priority 2024, published 2025).

The test relates to Phosphorylation of STAT6 in human A549 cells. The test is described as follows: Phosphorylated STAT6 (pSTAT6) flow cytometry assay in human A549 cells. The format is cell-based. To be noted: read-out: STAT6 IL4 pSTAT6 assay in A549 cells: Average IC50. The source says:
Example 3. Phosphorylated STAT6 (pSTAT6) Flow Cytometry Assay in Human A549 Cells
Phosphorylation of STAT6 in human A549 cells was quantitatively measured using flow cytometry technology.
In general terms: In flow cytometry, cells or beads pass a laser one at a time.
As to `COc1ccccc1-c1cc(C2=CCCN(C(=O)CCn3ccnn3)C2)c(F)c2[nH]c(C(=O)N3CCN(c4ccnn4C)CC3)cc12` [Example I-1025], the IC50 (usually the midpoint of a concentration-inhibition curve) is less than 100 nM. The same measure for `COc1cc(F)cnc1N1CCN(C(=O)c2cc3c(C4=CC(=O)CC4)cc(C4=CCCN(C(=O)CCn5ccnn5)C4)c(F)c3[nH]2)CC1` [Example I-1116]: less than 100 nM. The same measure for `Cc1ccc(-c2cc(C3=CCCN(C(=O)CCn4ccnn4)C3)cc3cc(C(=O)N(C)C)oc23)c(O)c1` [Example I-853]: less than 100 nM; for `COc1cc(F)cnc1N1CCN(C(=O)c2cc3c(C4=CCOCC4)cc(C4=CCCN(C(=O)CCn5ccnn5)C4)c(F)c3[nH]2)CC1` [Example I-1156]: less than 100 nM; for `COc1cccnc1N1CCN(C(=O)c2cc3c(-c4cccc(Cl)c4OC)cc(C4=CCCN(C(=O)CCn5ccnn5)C4)c(F)c3[nH]2)CC1` [Example I-411]: more than 100000 nM. The same measure for `COc1ccccc1-c1cc(C2=CCCN(C(=O)CCn3ccnn3)C2)c(F)c2[nH]c(C(=O)N3CCN(c4cccc(C(F)(F)F)n4)CC3)cc12` [Example I-937]: 100 to 1000 nM; for `COc1ccccc1-c1cc(C2=CCCN(C(=O)CCn3ccnn3)C2)c(F)c2[nH]c(C(=O)N3CCN(c4cc(C#N)ccc4OC)CC3)cc12` [Example I-356, 3-(4-(6-(1-(3-(1H-1,2,3-triazol-1-yl)propanoyl)-1,2,5,6-tetrahydropyridin-3-yl)-7-fluoro-4-(2-methoxyphenyl)-1H-indole-2-carbonyl)piperazin-1-yl)-4-methoxybenzonitrile]: less than 100 nM; for `COc1cc(F)cnc1N1CCN(C(=O)c2cc3c(-c4ccc(C(O)C(F)(F)F)cc4)cc(C4=CCCN(C(=O)CCn5ccnn5)C4)c(F)c3[nH]2)CC1` (stereo not drawn) [Example I-1145]: less than 100 nM. For `CCc1ccccc1-c1cc(C2=CCCN(C(=O)CCn3ccnn3)C2)c(F)c2[nH]c(C(=O)N3CCN(c4ncc(F)cc4OC)CC3)cc12` [Example I-665], the IC50 was less than 100 nM. In the case of `COc1ccccc1-c1cc(C2=CCCN(C(=O)CCn3ccnn3)C2)c(F)c2[nH]c(C(=O)N3CCN(c4ccccn4)CC3)cc12` [Example I-862], the IC50 is less than 100 nM.

`COc1ccccc1-c1cc(C2=CCCN(C(=O)CCn3ccnn3)C2)c(F)c2[nH]c(C(=O)N3CCN(c4c(F)cccc4OC4CC4)CC3)cc12` [Example I-424]: the IC50 is less than 100 nM. The same measure for `COc1cc(F)cnc1N1CCN(C(=O)c2cc3c(C4CN(C)C4)cc(C4=CCCN(C(=O)CCn5ccnn5)C4)c(F)c3[nH]2)CC1` [Example I-785]: less than 100 nM; for `CCn1ncc2c1CN(C(=O)c1cc(C3CC3)c3c(c1)cc(C1=CCCN(C(=O)CCn4ccnn4)C1)n3CC1CC1)C2` [Example I-768]: more than 100000 nM. For `COc1ccccc1-c1cc(C2=CCCN(C(=O)CCn3ccnn3)C2)c(F)c2[nH]c(C(=O)N3CCN(c4ccccn4)C(=O)C3)cc12` [Example I-1008] the value was less than 100 nM; for `COc1ccccc1-c1cc(C2=CCCN(C(=O)CCn3ccnn3)C2)c(F)c2[nH]c(C(=O)N3CCN(c4nc5ccccc5c5ccccc45)CC3)cc12` [Example I-916], 100 to 1000 nM; for `CCc1ccncc1-c1cc(C2=CCCN(C(=O)CCn3ccnn3)C2)c(F)c2[nH]c(C(=O)N3CCN(C4CC4)CC3)cc12` [Example I-473], less than 100 nM. Turning to `CCOC(=O)CC(=O)N1CCC=C(c2cc3cc(C(=O)N4CCN(c5ncc(F)cc5OC)CC4)cc(-c4ccc(C)nc4CC)c3n2CC2CC2)C1` [Example I-1173], the IC50 was 100 to 1000 nM. In the case of `COc1cc(F)cnc1N1CCN(C(=O)c2cc3c(-c4cccc(CN5CCOCC5)c4)cc(C4=CCCN(C(=O)CCn5ccnn5)C4)c(F)c3[nH]2)CC1` [Example I-1154], the IC50 is less than 100 nM. As to `COc1c(-c2cc(C3=CCCN(C(=O)CCn4ccnn4)C3)c(F)c3[nH]c(C(=O)N4CCN(C5CC5)CC4)cc23)cnc2ccccc12` [Example I-449], the IC50 was less than 100 nM.

Turning to `COc1cccnc1N1CCN(C(=O)c2cc3c(-c4cc(C#N)ccn4)cc(C4=CCCN(C(=O)CCn5ccnn5)C4)c(F)c3[nH]2)CC1` [Example I-581], the IC50 was less than 100 nM. For the compound `COc1ccncc1-c1cc(C2=CCCN(C(=O)CCn3ccnn3)C2)c(F)c2[nH]c(C(=O)N(C)C)cc12` [Example I-1065], the IC50 is less than 100 nM.

Regarding `COc1cc(F)cnc1-c1cc(C2=CCCN(C(=O)CCn3ccnn3)C2)c(F)c2[nH]c(C(=O)N3CCN(c4ncc(F)cc4OC)CC3)cc12` [Example I-614], the IC50 was less than 100 nM. For `COc1ccncc1-c1cc(C2=CCCN(C(=O)CCn3ccnn3)C2)c(F)c2[nH]c(C(=O)N3CCN(c4ccc(C#N)cc4OC)CC3)cc12` [Example I-474] the value was less than 100 nM; for `CCc1ccccc1-c1cc(C2=CCCN(C(=O)CCn3cccn3)C2)c(F)c2[nH]c(C(=O)N3CCN(c4ncc(F)cc4OC)CC3)cc12` [Example I-662], less than 100 nM. As for `COc1cc(N(C)C)ccc1-c1cc(C2=CCCN(C(=O)CCn3ccnn3)C2)c(F)c2[nH]c(C(=O)N3CCN(c4ncccc4OC4CC4)CC3)cc12` [Example I-609], the IC50 is less than 100 nM.

Take `CN(C)C(=O)c1cc2c(F)c(C3=CCCN(C(=O)CCn4ccnn4)C3)ccc2o1` [Example I-1052]: the IC50 is less than 100 nM. As for `COc1cc(F)cnc1N1CCN(C(=O)c2cc3c(-c4cccc(OC(C)C)c4)cc(C4=CCCN(C(=O)CCn5ccnn5)C4)c(F)c3[nH]2)CC1` [Example I-638], the half-inhibitory concentration (IC50) was less than 100 nM.

`CCc1cc(C)ncc1-c1cc(C2=CCCN(C(=O)CCc3nccs3)C2)c(F)c2[nH]c(C(=O)N3CCN(c4nc(C)ccc4OC)CC3)cc12` [Example I-526]: the IC50 is less than 100 nM. As to `COc1ccccc1-c1cc(C2=CCCN(C(=O)CCn3ccnn3)C2)c(F)c2[nH]c(C(=O)N3CCC(C)(O)C3)cc12` (stereo not drawn) [Example I-1006], the IC50 lay within 100 to 1000 nM. For `CCc1cc(C)ncc1-c1cc(C2=CCCN(C(=O)CCn3ccnn3)C2)c(F)c2[nH]c(C(=O)N3Cc4cnn(C)c4C3)cc12` [Example I-531], the IC50 was less than 100 nM. For `C=C(C)c1cc(C2=CCCN(C(=O)CCn3ccnn3)C2)c(F)c2[nH]c(C(=O)N3CCN(c4ncc(F)cc4OC)CC3)cc12` [Example I-675] the value was less than 100 nM; for `CNc1ccc(-c2cc([C@@H]3CCCN(C(=O)CCn4ccnn4)C3)cc3[nH]c(C(=O)N(C)C)cc23)c(OC)c1` (single isomer, unassigned) [Example I-1191], 1000 to 10000 nM. For `COc1cnccc1-c1cc(C2=CCCN(C(=O)CCn3ccnn3)C2)c(F)c2[nH]c(C(=O)N3Cc4cnn(C)c4C3)cc12` [Example I-502] the value was 10000 to 100000 nM. For `COc1cc(F)cnc1N1CCN(C(=O)c2cc(-c3cccnc3C3CC3)c3c(c2)cc(C2=CCCN(C(=O)CCn4ccnn4)C2)n3CC2CC2)CC1` [Example I-728] the value was more than 100000 nM. Turning to `COc1ccccc1-c1cc(C2=CCCN(C(=O)CCn3ccnn3)C2)c(F)c2[nH]c(C(=O)N3CCN(c4ncccc4Oc4ccccc4)CC3)cc12` [Example I-334], the IC50 was less than 100 nM. The same measure for `COc1ccccc1-c1cc(C2=CCCN(C(=O)CCn3ccnn3)C2)c(F)c2[nH]c(C(=O)N3CCN(C4CC(F)(F)C4)CC3)cc12` [Example I-501]: 10000 to 100000 nM; for `COc1ccccc1-c1cc(C2=CCCN(C(=O)CCn3ccnn3)C2)c(F)c2[nH]c(C(=O)N3Cc4cn(-c5ncccc5OC)cc4C3)cc12` [Example I-417]: less than 100 nM; for `CN(C)C(=O)c1cc2cc(C3=CCCN(C(=O)CCc4nncs4)C3)ccc2o1` [Example I-824]: 100 to 1000 nM. In the case of `CCOCc1cc(F)ccc1-c1cc(C2=CCCN(C(=O)CCn3ccnn3)C2)c(F)c2[nH]c(C(=O)N3CCN(c4ncc(F)cc4OC)CC3)cc12` [Example I-1125], the IC50 is less than 100 nM. The same measure for `CN(C)C(=O)c1cc2cc(C3=CCCN(C(=O)CCn4ccnn4)C3)cc(NCc3cccc4ncccc34)c2o1` [Example I-871]: less than 100 nM.

As to “(S)-5-(1-(2-formyl-1,2,3,4-tetrahydroisoquinoline-3-carbonyl)-1,2,5,6-tetrahydropyridin-3-yl)-7-(2-methoxyphenyl)-N,N-dimethylbenzofuran-2-carboxamide [Example I-805]”, the IC50 was more than 100000 nM. For `COc1cc(F)cnc1N1CCN(C(=O)c2cc3c(-c4ccc(C(C)N5CCOCC5)cc4)cc(C4=CCCN(C(=O)CCn5ccnn5)C4)c(F)c3[nH]2)CC1` (stereo not drawn) [Example I-1121] the value was less than 100 nM; for `COc1ccccc1-c1cc(C2=CCCN(C(=O)CCn3ccnn3)C2)c(F)c2[nH]c(C(=O)N3CCc4ncccc43)cc12` [Example I-974], less than 100 nM; for `CCn1ncc2c1CN(C(=O)c1cc(-c3ccccc3OC)c3c(c1)cc(C1=CCCN(C(=O)CCn4ccnn4)C1)n3CC1CC1)C2` [Example I-530], less than 100 nM. With `COc1ccccc1-c1cc(C2=CCCN(C(=O)CCn3ccnn3)C2)c(F)c2[nH]c(C(=O)N3CCN(CC4CCCO4)CC3)cc12` (stereo not drawn) [Example I-1184], the IC50 is less than 100 nM. The same measure for `CC(=O)N1CCC=C(c2cc(-c3ccc4n[nH]c(C)c4c3)c3cc(C(=O)N(C)C)[nH]c3c2F)C1` [Example I-883]: 100 to 1000 nM. On to `CCC1=C(c2cc(C3=CCCN(C(=O)CCn4ccnn4)C3)c(F)c3[nH]c(C(=O)N4CCN(c5ncc(F)cc5OC)CC4)cc23)CN(C)C1` [Example I-782], for which the IC50 was less than 100 nM.

In the case of `COc1cc(F)cnc1N1CCN(C(=O)c2cc3c(-c4cc(C)nc5ccccc45)cc(C4=CCCN(C(=O)CCn5ccnn5)C4)c(F)c3[nH]2)CC1` [Example I-630], the IC50 is less than 100 nM. Consider `COc1ccccc1-c1cc(C2=CCCN(C(=O)CCn3ccnn3)C2)c(F)c2[nH]c(C(=O)N(C)C3Cc4ccccc4C3)cc12` [Example I-978], for which the IC50 lay in the range of 100 to 1000 nM. For `CCc1ccncc1-c1cc(C2=CCCC(C(=O)O)C2)c(F)c2[nH]c(C(=O)N3CCN(c4ncc(F)cc4OC)CC3)cc12` (stereo not drawn) [Example I-1205] the value was 1000 to 10000 nM.

For the compound `COc1ccc(C)cc1-c1cc(C2=CCCN(C(=O)CCn3ccnn3)C2)cc2[nH]c(C(=O)N(C)C)cc12` [Example I-1057], the IC50 was less than 100 nM.
